Test results: patent US20250275975A1, “Methods of Treating Neuropathies” (Athira Pharma, Inc., priority 2023, published 2025)

Assays:
[1] = system: neuron-Schwann cell co-cultures injured with cisplatin; assay: Sensory neurite extension and myelination in cisplatin-injured primary dorsal root ganglia cultures; assay type: cell-based, rat; set-up: key to Significant promotion of Neurite Network Extension of Sensory Neurons / Significant promotion of Myelination of Sensory neurons by Schwann Cells: “NS” indicates the treatment did not have a significant effect; “+” indicates the treatment had a significant effect; conditions: for Significant promotion of Myelination of Sensory neurons by Schwann Cells / Significant promotion of Neurite Network Extension of Sensory Neurons: +Cisplatin injury (10 μg/ml, 24 hours), vs Cisplatin-treated group
Description: (§1) To assess the effects of test compound treatment on these structures central to neuropathic pathology, peripheral sensory neurons were modeled using dissociated primary cultures of neurons and Schwann cells collected from fetal rats. Fetal rats were collected from pregnant females after 15 days of gestation, and the dorsal root ganglion was dissociated via trypsin digestion and mechanical disruption. The resulting cells were plated and allowed to grow for 7 days. On day 7 in culture, ascorbic acid at a concentration of 50 μM was added to the culture to promote myelination of sensory neurons by Schwann cells.
To model the effects of neuropathic injury in sensory neurons and associated Schwann cells, cultures were injured with the chemotherapy drug cisplatin. These cultures were prepared identically to those described above. In this system, Compound 5a, HGF, and β-estradiol treatments began on culture day 19. Also on culture day 19, cisplatin (10 μg/ml) was added to the cultures for 24 hours. On culture day 20, cisplatin was removed from the media while test compound treatments were replaced for 24 hours. On day 21 in culture, cells were fixed and processed for immunodetection as described above.
(§2) 30 fluorescent images were captured for each treatment group and images were quantified by automated image analysis. Neurite network extension was quantified as the total length of MAP2-positive neurites per cell measured in μm. Myelination by Schwann cells was quantified by the area of overlap between MAP2-positive neurites and MAG-positive myelin wrapping measured in μm^2. Statistical analysis was performed as a one-way ANOVA with Fisher's LSD post-test against either vehicle- or Cisplatin-treated groups respectively.

[2] = system: neuron-Schwann cell co-cultures; assay: Sensory neurite extension and myelination in healthy primary dorsal root ganglia cultures; assay type: cell-based, rat; set-up: key to Significant promotion of Neurite Network Extension of Sensory Neurons / Significant promotion of Myelination of Sensory neurons by Schwann Cells: “NS” indicates the treatment did not have a significant effect; “+” indicates the treatment had a significant effect; conditions: for Significant promotion of Myelination of Sensory neurons by Schwann Cells / Significant promotion of Neurite Network Extension of Sensory Neurons: Healthy cultures, vs vehicle
Description: as §1
To model the effects of Compound 5a in the normal peripheral nervous system, neuron-Schwann cell co-cultures were treated with Compound 5a in combination with low doses of recombinant hepatocyte growth factor (HGF). On day 8 in culture, experimental treatments were added to culture media. These treatments included HGF with or without Compound 5a. Some cultures were treated with the steroid hormone B-estradiol to serve as a positive control. Treatments were applied every other day, and on day 21 in culture the cultures were fixed with ethanol and processed for immunodetection of both microtubule-associate protein 2 (MAP2) to reveal neurons and their neurites as well as myelin-associated glycoprotein (MAG) to reveal Schwann cells and the extent of their myelination of cultured neurites. Cells were counterstained with Hoechst DNA dye to identify individual cells.
as §2

STZ DNP rats [3] = assay: Thermal hyperalgesia rescue assay (hot plate paw withdrawal latency), Example B1; assay type: in vivo, Sprague Dawley rats; set-up: key to Efficacy: rescue of thermal hyperalgesia behavior as measured by paw withdrawal latency: NS indicates treatment did not significantly affect paw withdrawal latency vs disease control.; + indicates p < 0.05 vs disease control.; ++ indicates p < 0.01 vs disease control.; +++ indicates p < 0.001 vs disease control; conditions: for Efficacy: rescue of thermal hyperalgesia behavior as measured by paw withdrawal latency: study day 28 after 14 days of treatment, hot plate 52.5° C., p vs disease control
Description: (§3) A series of studies were performed to determine the ability of HGF/MET positive modulator compounds to reduce the mechanical allodynia pain behaviors in hyperglycemic rats. A single dose of STZ (55 mg/kg via intravenous (IV)) was administered to induce a Type I diabetic hyperglycemia in male Sprague Dawley rats. Hyperglycemia was confirmed 4 days after STZ administration, with blood glucose levels above 200 mg/dL considered successful model induction. 14 days after disease induction, test compound treatment was initiated and continued as daily compound administration over the remaining course of the study. Route and dose for each compound were determined by pharmacokinetic and distribution modelling. Control groups included animals with no diabetic induction (Sham control), animals with diabetes but treated only with formulation vehicle (DNP (diabetic peripheral neuropathy) control), and disease animals treated with pregabalin (30 mg/kg via PO), which is known to reduce neuropathic pain behaviors.
(§4) Changes to neuropathic pain behaviors were assessed after 14 days of compound treatment on study day 28. Mechanical allodynia was tested by placing each animal on an elevated wire grid and stimulating the plantar surface of the right rear paw with a series of filaments corresponding to increasing orders of force, reaching a maximum force of 60 grams (Aesthesio manual Von Frey filaments). The force of the filament that causes paw withdrawal was considered the paw withdrawal threshold in grams. Pain sensitivity in response to thermal hyperalgesia was determined by using hot plate method and represented as paw withdrawal latency (PWL). Rats were placed on the hot plate (52.5° C.), and the time taken to show the nocifensive behavior (either licking or jumping) of any of their paws was recorded. Statistical comparison of treatment groups to DNP control groups was performed by one-way ANOVA followed by Dunnett's multiple comparisons test.

STZ DNP rats [4] = assay: Mechanical allodynia rescue assay (Von Frey paw withdrawal threshold), Example B1; assay type: in vivo, Sprague Dawley rats; set-up: key to Efficacy: rescue of mechanical allodynia behavior as measured by paw withdrawal threshold: NS indicates treatment did not significantly affect paw withdrawal threshold vs disease control.; + indicates p < 0.05 vs disease control.; ++ indicates p < 0.01 vs disease control.; +++ indicates p < 0.001 vs disease control; conditions: for Efficacy: rescue of mechanical allodynia behavior as measured by paw withdrawal threshold: study day 28 after 14 days of treatment, p vs disease control
Excerpt: Hyperglycemic rats consistently develop neuropathic pain-associated behaviors including mechanical allodynia. Allodynia refers to a type of neuropathic pain characterized by increased sensitivity to stimuli that are not normally painful. Mechanical allodynia is quantified in rats by determination of the force required to induce a withdrawal of the paw and is negatively associated with allodynia such that, the lower the force required to induce paw withdrawal, the greater the pain behavior.
as §3, §4

[5] = Compound 5a 0.1 μM with HGF 0.05 ng/ml
[6] = Compound 5a 0.5 μM with HGF 0.05 ng/ml
[7] = Compound 5a 1 μM with HGF 0.05 ng/ml
[8] = injured cultures, Compound 5a at 0.1, 0.5, and 1 μM with HGF (0.05 ng/ml)
[9] = healthy cultures, 0.5 μM Compound 5a with HGF (0.05 ng/ml)

CCC(C)CN1CC2N(Cc3ccc(C(F)(F)F)cc3)CCC(=O)N2[C@@H](C)C1=O (stereo partly shown) [Compound 5a]
Significant promotion of Myelination of Sensory neurons by Schwann Cells [1, 5]: +
Significant promotion of Neurite Network Extension of Sensory Neurons [1, 5]: +
Significant promotion of Myelination of Sensory neurons by Schwann Cells [1, 6]: +
Significant promotion of Neurite Network Extension of Sensory Neurons [1, 6]: +
Significant promotion of Myelination of Sensory neurons by Schwann Cells [1, 7]: +
Significant promotion of Neurite Network Extension of Sensory Neurons [1, 7]: +
myelination [1, 8]: significantly promoted
neurite network extension [1, 8]: significantly promoted
Significant promotion of Myelination of Sensory neurons by Schwann Cells [2, 5]: +
Significant promotion of Neurite Network Extension of Sensory Neurons [2, 5]: NS
Significant promotion of Myelination of Sensory neurons by Schwann Cells [2, 6]: +
Significant promotion of Neurite Network Extension of Sensory Neurons [2, 6]: +
Significant promotion of Myelination of Sensory neurons by Schwann Cells [2, 7]: NS
Significant promotion of Neurite Network Extension of Sensory Neurons [2, 7]: NS
myelination [2, 9]: significant promotion
neurite network extension [2, 9]: significant promotion
Efficacy: rescue of thermal hyperalgesia behavior as measured by paw withdrawal latency (STZ DNP rats [3]; 0.003 mg/kg IV daily): + (+ indicates p < 0.05 vs disease control.)
Efficacy: rescue of thermal hyperalgesia behavior as measured by paw withdrawal latency (STZ DNP rats [3]; 0.015 mg/kg IV daily): NS
Efficacy: rescue of thermal hyperalgesia behavior as measured by paw withdrawal latency (STZ DNP rats [3]; 0.075 mg/kg IV daily): + (+ indicates p < 0.05 vs disease control.)
Efficacy: rescue of thermal hyperalgesia behavior as measured by paw withdrawal latency (STZ DNP rats [3]; 0.375 mg/kg IV daily): ++ (++ indicates p < 0.01 vs disease control.)
Efficacy: rescue of thermal hyperalgesia behavior as measured by paw withdrawal latency (STZ DNP rats [3]; 1 mg/kg PO daily): NS
Efficacy: rescue of thermal hyperalgesia behavior as measured by paw withdrawal latency (STZ DNP rats [3]; 2 mg/kg PO daily): + (+ indicates p < 0.05 vs disease control.)
Efficacy: rescue of thermal hyperalgesia behavior as measured by paw withdrawal latency (STZ DNP rats [3]; 10 mg/kg PO daily): +++ (+++ indicates p < 0.001 vs disease control.)
Efficacy: rescue of thermal hyperalgesia behavior as measured by paw withdrawal latency (STZ DNP rats [3]; 20 mg/kg PO daily): +++ (+++ indicates p < 0.001 vs disease control.)
rescue of thermal allodynia behavior as measured by paw withdrawal latency (STZ DNP rats [3]; STZ DNP rats): significant rescue
Efficacy: rescue of mechanical allodynia behavior as measured by paw withdrawal threshold (STZ DNP rats [4]; 0.003 mg/kg IV daily): NS
Efficacy: rescue of mechanical allodynia behavior as measured by paw withdrawal threshold (STZ DNP rats [4]; 0.015 mg/kg IV daily): NS
Efficacy: rescue of mechanical allodynia behavior as measured by paw withdrawal threshold (STZ DNP rats [4]; 0.075 mg/kg IV daily): NS
Efficacy: rescue of mechanical allodynia behavior as measured by paw withdrawal threshold (STZ DNP rats [4]; 0.375 mg/kg IV daily): ++ (++ indicates p < 0.01 vs disease control.)
Efficacy: rescue of mechanical allodynia behavior as measured by paw withdrawal threshold (STZ DNP rats [4]; 1 mg/kg PO daily): ++ (++ indicates p < 0.01 vs disease control.)
Efficacy: rescue of mechanical allodynia behavior as measured by paw withdrawal threshold (STZ DNP rats [4]; 2 mg/kg PO daily): +++ (+++ indicates p < 0.001 vs disease control.)
Efficacy: rescue of mechanical allodynia behavior as measured by paw withdrawal threshold (STZ DNP rats [4]; 10 mg/kg PO daily): +++ (+++ indicates p < 0.001 vs disease control.)
Efficacy: rescue of mechanical allodynia behavior as measured by paw withdrawal threshold (STZ DNP rats [4]; 20 mg/kg PO daily): +++ (+++ indicates p < 0.001 vs disease control.)
rescue of the mechanical allodynia behavior as measured by paw withdrawal threshold (STZ DNP rats [4]; STZ DNP rats): significant rescue
